Literature values, collected in patent publication US11739076B2, “Compound or its salt thereof targeting fibroblast activation protein, its preparation methods and its uses thereof” (Institute of Nuclear Energy Research Atomic Energy Council, …, priority 2021, dated 2023).

Legend:
tumor = conditions: in vivo

binding ratio of FAP and DDP4 (FAP and DDP4) | accumulation in the oral mucosa, salivary glands and thyroid glands (tumor; po) | Structure (SMILES) | tumor uptake and tumor-to-tissue ratio (tumor)
45 |  | N#C[C@@H]1CCCN1C(=O)CNC(=O)c1ccnc2ccc(OCCCN3CCN(C(=O)CN4CCN(CC(=O)O)CCN(CC(=O)O)CCN(CC(=O)O)CC4)CC3)cc12 [FAPI-02] | 
750 |  | N#C[C@@H]1CC(F)(F)CN1C(=O)CNC(=O)c1ccnc2ccc(OCCCN3CCN(C(=O)CN4CCN(CC(=O)O)CCN(CC(=O)O)CCN(CC(=O)O)CC4)CC3)cc12 [FAPI-04] | 
 | does not | CN(CCCN1CCN(C(=O)CN2CCN(CC(=O)O)CCN(CC(=O)O)CCN(CC(=O)O)CC2)CC1)c1ccc2nccc(C(=O)NCC(=O)N3CC(F)(F)C[C@H]3C#N)c2c1 [FAPI-46] | excellent tumor uptake and high tumor-to-tissue ratio
